Here are results for 1 compound from patent US9629834B2, “Medicinal composition for inhibiting formation and/or enlargement of cerebral aneurysm or shrinking same” (KYOTO UNIVERSITY, priority 2013, dated 2017).

The subject of one assay is cerebral aneurysm model. The assay can be described thus: Inhibitory effect on enlargement of cerebral aneurysm in cerebral aneurysm model. The assay is classed as in vivo, SD rat. The following applies: 0.1 mg/5 mL suspension, forced oral, once a day from Day 7; measured Day 7, Day 28, Day 49; FIG. 8 and FIG. 9. On the procedure:
A rat model of cerebral aneurysm was prepared according to the method disclosed on the literature by Hashimoto et al. (Surgical Neurology 1978, Vol. 10, p. 3-8). Namely, 50 mg/kg of pentobarbital was administrated intraperitoneally to a 7-week-old male SD rat, and the left common carotid artery and the left renal artery were ligated by using 10-0 nylon thread under anesthesia (this is referred to as the surgery for inducing cerebral aneurysm). From the day after surgery (Day 1), the rat was reared with being fed a high-salt diet. During a rearing period, the rat was given free access to water. The cerebral aneurysm model was reared with being fed a high-salt diet for 7 days from the day of the surgery so that the model formed cerebral aneurysm. 7 Days after surgery (Week 1, Day 7), the diet for the cerebral aneurysm model was replaced with a normal diet, and forced oral administration of the suspension of Compound 1 at a concentration of 0.1 mg/5 mL to the cerebral aneurysm model was conducted once a day. […] 7 Days after surgery (Week 1, Day 7), 28 days after surgery (Week 4, Day 28), and 49 days after surgery (Week 7, Day 49), the right olfactory artery/anterior cerebral artery bifurcation containing cerebral aneurysm was extirpated and the size of cerebral aneurysm (the maximum diameter and the mean diameter) was measured by similar procedures to Example 1.

For assay [1], the system named is Human carotid artery endothelial cells HCtAEC. Put plainly: Permeability of endothelial cells (Transwell, FITC-dextran). The following applies: 0.1 nM, 1 nM, 10 nM, or 100 nM; 60 minutes pre-culture; fluorescence after 5, 60 and 210 minutes; FIG. 14. The assay is classed as cell-based. The procedure: Human carotid artery endothelial cells […] (Cell Applications) were seeded in the upper compartment of Transwell (diameter: 6.5 mm, pore size: 0.4 μm, collagen-Coated: Corning) so that the cell density was 1×10^5 cells/well, and the cells were cultured overnight in MesoEndo Growth Medium (Cell Applications) under a 5% CO2 atmosphere at 37° C. The medium was replaced with Endothelial Cell Serum-Free Defined Medium (Cell Applications), and the cells were further cultured overnight under the CO2 atmosphere at 37° C. Then, Compound 1 was added to the upper compartment and the lower compartment of Transwell so that the final concentration was 0 nM, 0.1 nM, 1 nM, 10 nM, or 100 nM, and the cells were cultured continuously. The well to which Compound 1 was not added was defined as a control. After culturing for 60 minutes, 250 μg/mL of fluorescein isothiocyanate (FITC)-dextran (2,000 kDa: Sigma-Aldrich) was added to the upper compartment of Transwell, and the amount of FITC-dextran which permeated into the lower compartment was determined by measuring the fluorescence intensity of the medium in the lower compartment after 5 minutes, 60 minutes, and 210 minutes.

Assay [2] deals with macrophages (F4/80-positive cells). The assay can be described thus: Infiltration of macrophages into cerebral aneurysm formation site (F4/80 immunostaining). Type of assay: in vivo, SD rat. The following applies: Day 1 to Day 27, Day 28, vs vehicle group, FIG. 3B. On the procedure: A rat model of cerebral aneurysm was prepared according to the method disclosed on the literature by Hashimoto et al. (Surgical Neurology 1978, Vol. 10, p. 3-8). Namely, 50 mg/kg of pentobarbital was administrated intraperitoneally to a 7-week-old male SD rat, and the left common carotid artery and the left renal artery were ligated by using 10-0 nylon thread under anesthesia (this is referred to as the surgery for inducing cerebral aneurysm). From the day after surgery (Day 1), the rat was reared with being fed a high-salt diet. During a rearing period, the rat was given free access to water. Forced oral administration of 0.03 mg/5 mL or 0.1 mg/5 mL of the suspension of Compound 1 to the cerebral aneurysm model was conducted once a day at a dose of 5 mL/kg from 1 day after surgery (Day 1) to 27 days after surgery (Day 27). 28 Days after surgery (Day 28), the treatments on the right olfactory artery/anterior cerebral artery bifurcation containing cerebral aneurysm were conducted by using similar procedures to the steps 1) to 5) of Reference Example 2, and a section of the bifurcation was prepared. […] Under the observation with a confocal microscope, the number of macrophages was counted in an area of 100 μm square centered around the cerebrovascular bifurcation where cerebral aneurysm developed. The measurement was conducted on five rats and the mean value was calculated. […]

The subject of assay [3] is lymphocytes in peripheral blood. The assay can be described thus: Lymphopenic action in cerebral aneurysm model. The following applies: 0.03 mg/5 mL or 0.1 mg/5 mL suspension, 5 mL/kg, forced oral, once a day, Day 1 to Day 27; blood collected Day 28; FIG. 2. Type of assay: in vivo, SD rat. The procedure: A rat model of cerebral aneurysm was prepared according to the method disclosed on the literature by Hashimoto et al. (Surgical Neurology 1978, Vol. 10, p. 3-8). Namely, 50 mg/kg of pentobarbital was administrated intraperitoneally to a 7-week-old male SD rat, and the left common carotid artery and the left renal artery were ligated by using 10-0 nylon thread under anesthesia (this is referred to as the surgery for inducing cerebral aneurysm). From the day after surgery (Day 1), the rat was reared with being fed a high-salt diet. During a rearing period, the rat was given free access to water. Forced oral administration of 0.03 mg/5 mL or 0.1 mg/5 mL of the suspension of Compound 1 to the cerebral aneurysm model was conducted once a day at a dose of 5 mL/kg from 1 day after surgery (Day 1) to 27 days after surgery (Day 27). It should be noted that forced oral administration of the 0.5% MC solution (0 mg/5 mL of the suspension of Compound 1) to the cerebral aneurysm model was conducted once a day at a dose of 5 mL/kg. The group of these rats was defined as a vehicle group. […] The number of lymphocytes in the collected blood was counted by using a blood test system (Advia 120, Siemens Healthcare Diagnostics) according to the manual of the system.

As to `C[C@H](Oc1ccc(-c2nc(-c3ccc4[nH]cnc4c3)no2)cc1C(F)(F)F)C(F)(F)F.Cl` [Compound 1, 5-{5-[3-(trifluoromethyl)-4-{[(2S)-1,1,1-trifluoropropan-2-yl]oxy}phenyl]-1,2,4-oxadiazol-3-yl}-1H-benzimidazole hydrochloride], the “enlargement of cerebral aneurysm (maximum diameter and mean diameter)” value with cerebral aneurysm model was “inhibited the enlargement of cerebral aneurysm”. In addition, the “amount of FITC-dextran which permeated into the lower compartment (permeability of endothelial cells)” value in assay [1] is “decreased the amount of FITC-dextran which permeated into the lower compartment in a concentration-dependent manner”. The “number of macrophages at the cerebral aneurysm formation site” value in assay [2] (0.03 mg/kg oral once a day) and in assay [2] (0.1 mg/kg oral once a day) was “decreased as compared to the number of macrophages in the vehicle group” each time. Also, the “number of lymphocytes in peripheral blood” value in assay [3] is given as “decreased the number of lymphocytes in peripheral blood in a concentration-dependent manner”.
